Data as given in publication PMC5838563, “Compounds producing an effective combinatorial regimen for disruption of HIV‐1 latency” (EMBO Molecular Medicine, 2017).

How the values were obtained:
[1] = system: IL‐2 production and CD69 in primary cells; design: method as in previous results (reference not given); conditions: 10 nM PEP005, primary cells; ref previous results (reference not given); cited from earlier work
[2] = system: HIV‐1 LTR (Jurkat^Tat LTR‐DsRed clone #11); assay: mdHIV LTR‐DsRed reporter assay, clone #11; type: cell-based
Description: HIV‐1 tends to integrate into actively transcribed regions of the host genome (Jordan et al, 2003; Lewinski et al, 2006; Ikeda et al, 2007). Each HIV‐1‐infected patient carries viral DNA integrated at different chromosomal locations, and as we have previously shown, the site of viral integration influences how latently infected T cells respond to different stimuli (Hashemi et al, 2016). Therefore, an ideal LRA should be capable of disrupting latency in cell models carrying integrated viral reporters at multiple different regions within the host genome. To assess this capability for the PH compounds, we used two additional previously described cell lines, designated Jurkat^Tat LTR‐DsRed clones #11, and #131, that carry a mini‐dual fluorescent HIV‐1 LTR reporter (mdHIV) at different chromosomal locations. The minivirus mdHIV has two fluorescent reporters in which DsRed expression is driven from the 5′ LTR, and eGFP is constitutively expressed from an internal EIF‐1α promoter (Fig 5A). […]
(§1) Figure 5 Effect of PH02 on HIV provirus integrated at different chromosomal locations • A The effect of PH compounds was analyzed using clonal lines bearing single‐copy integrations of the mini‐dual fluorescent HIV‐1 LTR reporter, md‐HIV, where GFP is constitutively expressed from the EIF‐1α internal promoter, and DsRed from the 5′ LTR. • B Fluorescence‐activated cell sorting (FACS) of cells bearing md‐HIV provirus indicates expression of EIF‐1α‐GFP and LTR‐dsRed. Stimulation of the md‐HIV lines generally causes a shift of the fluorescence profile from GFP^+/DsRed^− toward GFP^+/DsRed^+. • C, D Clone 11 or clone 131 was treated with the indicated concentrations of PH02 (left panels) or PH02 in combination with 10 nM PEP005 (right panels) for 24 h and cells analyzed by flow cytometry. Results presented as Δmean fluorescence intensity (ΔMFI) of DsRed expression and fold increase in DsRed expression for solo and combination treatments, respectively. Mean and SE are determined from three biological replicates (n = 3) and technical duplicates. […]

[3] = system: HIV‐1 LTR (Jurkat^Tat LTR‐DsRed clone #131); assay: mdHIV LTR‐DsRed reporter assay, clone #131; type: cell-based
Description: HIV‐1 tends to integrate into actively transcribed regions of the host genome (Jordan et al, 2003; Lewinski et al, 2006; Ikeda et al, 2007). Each HIV‐1‐infected patient carries viral DNA integrated at different chromosomal locations, and as we have previously shown, the site of viral integration influences how latently infected T cells respond to different stimuli (Hashemi et al, 2016). Therefore, an ideal LRA should be capable of disrupting latency in cell models carrying integrated viral reporters at multiple different regions within the host genome. […]
as §1, with “cytometry.” for “cytometry. Results presented as Δmean fluorescence intensity (ΔMFI) of DsRed expression and fold increase in DsRed expression for solo and combination treatments, respectively. Mean and SE are determined from three biological replicates (n = 3) and technical duplicates.”

[4] = PH02 alone, 24 h, serial dilutions 28–0.2 μM
[5] = in combination with 10 nM PEP005, 24 h

Structure (SMILES) | CD69 [1] | IL‐2 production [1] | concentration reactivating viral transcription (LTR‐DsRed, ∆MFI) [2, 4] | PH02 concentration producing increased effects on HIV‐1 LTR transcription with PEP005 [2, 5] | concentration reactivating viral transcription (LTR‐DsRed, ∆MFI) [3, 4] | PH02 concentration producing increased effects on HIV‐1 LTR transcription with PEP005 [3, 5]
C/C=C(/C)C(=O)O[C@H]1C(C)=C[C@]23C(=O)[C@@H](C=C(CO)[C@@H](O)[C@]12O)[C@H]1[C@@H](C[C@H]3C)C1(C)C [PEP005, ingenol‐3‐angelate, reference compound] | does induce upregulation of CD69 | does not cause |  |  |  | 
CC(=O)Oc1ccccc1N(C=C1Sc2ccccc2C1=O)C(C)=O [PH02, 2‐{acetyl[(3‐oxo‐1‐benzothien‐2(3H)‐ylidene)methyl]amino}phenyl acetate] |  |  | above 1.75 μM | above 1.75 μM | above 1.75 μM | above 1.75 μM
